In PubChem BioAssay (NCI):
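These data come from cells grown in 96-well plates and exposed to compound for 48 hours at five concentrations. Abbreviation: GI50, concentration required for 50% inhibition of growth. TGI: total growth inhibition.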

Key:
Experiment in all cases: growth of human tumour cells (NCI), 48 h
[1] = test system: NCI-H460 lung
[2] = test system: KM12 colon
[3] = test system: UACC-62 melanoma
[4] = test system: NCI-H522 lung
[5] = test system: HL-60(TB) leukemia
[6] = test system: M14 melanoma
[7] = test system: SK-MEL-28 melanoma
[8] = test system: OVCAR-4 ovarian
[9] = test system: MALME-3M melanoma
[10] = test system: SNB-75 CNS

| Compound | GI50 [1] [µM] | TGI [1] [µM] | GI50 [2] [µM] | TGI [2] [µM] | GI50 [3] [µM] | TGI [3] [µM] | GI50 [4] [µM] | TGI [4] [µM] | GI50 [5] [µM] | TGI [5] [µM] | GI50 [6] [µM] | TGI [6] [µM] | GI50 [7] [µM] | TGI [7] [µM] | GI50 [8] [µM] | TGI [8] [µM] | GI50 [9] [µM] | TGI [9] [µM] | GI50 [10] [µM] | TGI [10] [µM] |
| --- | --- | --- | --- | --- | --- | --- | --- | --- | --- | --- | --- | --- | --- | --- | --- | --- | --- | --- | --- | --- |
| C=CCOc1cccc(/C=C2\SC(=Nc3ccc(O)cc3)NC2=O)c1 | 0.389 | 5.2 | 0.433 | 8.86 | 0.808 | 17.4 | 0.406 | 2.98 | 0.241 | 0.749 | 0.384 | 22.9 | 2.47 | 31.2 | 2.15 | 22.8 | 2.48 | 21.9 | 0.189 | 0.668 |
| N#C/C(=C\c1ccc(O)c(O)c1)C(N)=S |  | > 100 |  | > 100 |  | > 100 |  | 75.9 |  | > 20 |  | > 100 |  | > 100 |  | > 100 |  | > 100 |  | > 100 |
| COc1cccc2c1c(C(=O)C(=O)Nc1cc(C)no1)cn2Cc1ccc(F)cc1 | 5.15 | 46.9 | 2.19 | > 44.4 | 3.29 | > 100 | 8.51 | > 100 | 2.2 | > 20.2 | 5.42 | > 79.9 | 7.59 | > 89.6 | 24 | > 100 | 93.2 | > 100 | 3.42 | > 73.5 |
| COc1ccc(-c2csc(N(C(=O)N3CCN(c4cc5c(cc4F)c(=O)c(C(=O)O)cn5C4CC4)CC3)c3ccccc3)n2)cc1 | 3.12 | > 100 | 3.41 | > 100 | 2.24 | 8.91 | 2.16 | 6.8 | 2.34 | 5.94 | 3.7 | > 100 | 5.17 | > 100 | 1.56 | > 100 | 2.64 | 7.54 | 0.812 | > 25.9 |
| CC1SC2=NC3=C(c4ccccc4C3=O)C(c3ccc(F)cc3)N2C1=O (stereo unspecified) |  | > 100 |  | > 100 |  | > 100 |  | > 100 |  | > 100 |  | > 100 |  | > 100 |  | > 100 |  | > 100 |  | > 100 |
| O=C(N/C(=C\c1ccc2c(c1)OCO2)c1nc2ccccc2[nH]1)c1ccccc1 |  | > 100 |  | > 100 |  | 56.9 |  | 61 |  | 37.4 |  | > 90.9 |  | 52.1 |  | 69.4 |  | > 89.7 |  | > 74 |
| COc1cc(C(=O)C/C(CCCC(=O)Nc2ccccc2[N+](=O)[O-])=N/NC(=O)c2cc3ccccc3cc2O)ccc1O |  | > 100 |  | 82.5 |  | 53.2 |  | > 100 |  | 51.3 |  | 50.2 |  | > 100 |  | > 100 |  | > 100 |  | > 100 |
| CN(C)CCNc1c2c(c(NCCN(C)C)c3[nH]ccc13)C(=O)c1ccccc1C2=O | 0.462 | 2.87 | 0.347 | 2.26 | 1.64 | 14.8 | 3.3 | > 100 | 1.39 |  | 3.68 | 29.9 | 3.1 | 9.5 | 1.05 | 3.11 | 3.3 | 11.9 | 2.75 | 30.6 |
| COc1ccc(-c2nn3c(-c4cc(F)c(Cl)cc4Cl)nnc3s2)cc1 | 22.4 | 86.5 | 26.3 | > 100 | 21.8 | > 100 | 17 | 73.1 | 15.6 | 43.9 | 25.6 | 95.9 | 25.8 | > 100 | 23.5 | 87.4 | 26.8 | > 100 | 17.2 | 51.5 |
| COC(=O)[C@@]1(C)CC[C@]2(C)CC[C@]3(C)C4=CC=C5C(=CC(=O)C(O)=C5C)[C@]4(C)[C@@H](O)C[C@@]3(C)[C@@H]2C1 | 13.4 | 25.5 | 13 | 25.1 | 8.59 | 18.9 | 8.39 | 20 | 9.68 | 28.9 | 9.74 | 22.2 | 9.43 | 19.7 | 8.38 | 19.7 | 4.91 | 16.2 | 11.6 | 26 |
| NCCn1c(=O)[nH]c(=O)[nH]c1=S | 39.2 | > 100 | > 100 | > 100 | > 100 | > 100 | > 100 | > 100 | > 100 | > 100 | > 100 | > 100 | > 100 | > 100 | > 100 | > 100 | > 100 | > 100 | > 100 | > 100 |
| CC(C)[C@H]1CO[C@]2(C)[C@@H]3CN(Cc4ccccc4)C[C@@H]3C(=O)N12 |  | > 100 |  | > 100 |  | > 100 |  | > 100 |  | > 100 |  | > 100 |  | > 100 |  | > 100 |  | > 100 |  | > 100 |
| COc1cc(/C=C/c2cc(O)c3cc(C(C)=O)c(=O)oc3c2)cc2c1O[C@]1(C)CC[C@@H](O)C(C)(C)[C@H]1C2 |  | > 53.2 | > 20.8 | > 39.3 |  | > 27.8 | > 25.9 | > 53 | 2.12 | 10.7 |  | > 20.2 |  | > 21.4 | > 43 | > 74.3 |  | > 33 |  | > 48 |
| COc1ccc(OC)c(/C=C2\SC(=S)NC2=O)c1 | 32.6 | > 100 | 58.7 | > 100 | 17.7 | 53.4 | 31.4 | > 100 | 58 | > 100 | 30.7 | > 100 | 42.4 | > 100 | 62.9 | > 100 | 34.6 | 92.8 | 29.3 | > 100 |
| Cc1cc(N(CCCl)CCCl)ccc1C=Nc1ccc(-c2csc(Cc3ccccc3)n2)cc1 | 0.475 | 23.6 | 15.8 | 55.6 | 0.621 | 16 | 11.7 | 27 | 1.85 | > 46 | 15.7 | 58.6 | 17.9 | 63.1 | 8.01 | > 100 | 16.4 | 33.2 | 3.03 | 33.5 |
| O=c1cc(-c2ccccc2)[nH]c2ccccc12 | 0.398 | > 50.9 | 0.464 | > 100 | 0.519 | > 100 | 0.439 | > 46.7 | 0.52 | > 100 | 0.941 | > 100 |  | > 100 | 0.949 | > 100 | > 100 | > 100 | 0.542 | > 100 |
| COc1cc2c(c(OC)c1)C1c3ccccc3NC(=O)N1CC2 (stereo unspecified) | 3.7 | > 100 | 4.95 | > 100 | 3.08 | > 100 | 2.97 | 11.8 | 2.12 | 5.56 | 1.97 | 21.4 | 9.41 | 28.5 | 8.24 | > 100 | 10.4 | 67.8 | 2.69 | > 100 |
| O=C(NCCO)Nc1ccc(-c2nc(N3CCOCC3)c3cccn3n2)cc1 | 0.19 | > 100 | 0.579 | > 100 | 0.0809 | 1.84 | 0.0833 | > 100 | 2.21 | > 100 | 0.189 | > 65.5 | 0.108 | 4.59 | 0.0892 | 3.75 |  | 0.0506 | 0.0445 | 1.08 |
| CN1CCC(n2cnc(-c3ccc(F)cc3)c2-c2ccnc(NCCO)n2)CC1 | 9.54 | > 25 | 16.7 | > 25 | > 21.6 | > 25 | > 17.7 | > 25 | > 25 | > 25 | > 25 | > 25 | > 25 | > 25 | > 20.9 | > 25 | 23.8 | > 25 | 12.3 | > 25 |
| Nc1ccccc1C#C/C=C\C#Cc1cccs1 | 13.7 | 42.5 | 5.66 | 25.6 | 5.96 | 19.4 | 6.84 | 31.6 | 0.696 | 12.3 | 10.5 | 30.9 | 24.6 | > 67.5 | 16.2 | > 50.7 | 5.38 | 29.2 | 16.8 | 61.9 |
| Cc1c(C(=O)C/C(=N\O)C(=O)Nc2cc(Cl)c(Cl)cc2Cl)[n+](=O)c2ccccc2n1[O-] |  | 35.2 |  | 26.2 |  | 16.5 |  | 16.2 |  | > 100 |  | 15.9 |  | 52.1 |  | 39.4 |  | 21.1 |  | > 100 |
